Measurements taken from article PMC10017709, “Structural basis of selective cannabinoid CB2 receptor activation” (Nature Communications, 2023).
Several values for one entry are separate records, joined by “and”; a condition that tells them apart may be missing. Identical values can stand only once. Like-named read-outs stand apart in the source and are kept apart here.

Assays:
hCB2R [1] = biological target: T1, hCB2R (Homo sapiens, UniProt P34972); assay: [3H]RO6957022 displacement assay; assay type: binding; details: individual replicates
T1 construct: host or cells: CHO-K1 (CHOK1_hCB2bgal, PathHunter), membranes
T1 sequence (P34972 whole entry): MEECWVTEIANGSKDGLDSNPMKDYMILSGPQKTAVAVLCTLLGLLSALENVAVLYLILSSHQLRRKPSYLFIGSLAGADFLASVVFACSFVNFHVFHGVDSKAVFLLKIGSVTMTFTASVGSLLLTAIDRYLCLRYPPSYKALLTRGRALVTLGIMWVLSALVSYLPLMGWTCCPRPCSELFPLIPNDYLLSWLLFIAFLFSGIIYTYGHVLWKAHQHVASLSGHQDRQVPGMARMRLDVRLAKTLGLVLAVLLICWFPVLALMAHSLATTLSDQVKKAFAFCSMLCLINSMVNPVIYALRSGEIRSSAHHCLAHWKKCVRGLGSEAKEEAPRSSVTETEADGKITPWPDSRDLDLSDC

hCB2R [2] = biological target: T1, hCB2R; assay: [3H]RO6957022 competition association assay; assay type: binding; details: for percentage specific [3H]RO6957022 binding (competition association): individual replicates
CB2R WT = CB2R WT (Homo sapiens, UniProt P34972); assay: [35S]GTPγS G protein activation assay, CB2R WT; assay type: biochemical; details: for Emax: CB2R WT, read-out: Emax (%); for [35S]GTPγS binding, percentage of WT / [35S]GTPγS binding, percentage of CP55,940: individual replicates
CB2R WT, sequence (P34972 whole entry): as above

CB2R-L185^ECL2H = CB2R-L185^ECL2H (Homo sapiens, UniProt P34972, L185H); assay: [35S]GTPγS assay, CB2R L185H mutant; assay type: biochemical; details: L185H mutant; at 10 µM compared to WT; read-out: Emax (%)
CB2R-L185^ECL2H, sequence (P34972 whole entry L185H): as the sequence (P34972 whole entry) above, with L185H counted along it

CB2R-L182^ECL2I = CB2R-L182^ECL2I (Homo sapiens, UniProt P34972, L182I); assay: [35S]GTPγS assay, CB2R L182I mutant; assay type: biochemical; details: L182I mutant; at 10 µM compared to WT; read-out: Emax (%)
CB2R-L182^ECL2I, sequence (P34972 whole entry L182I): as the sequence (P34972 whole entry) above, with L182I counted along it

CB2R-E181^ECL2D = CB2R-E181^ECL2D (Homo sapiens, UniProt P34972, E181D); assay: [35S]GTPγS assay, CB2R E181D mutant; assay type: biochemical; details: E181D mutant; at 10 µM compared to WT; read-out: Emax (%)
CB2R-E181^ECL2D, sequence (P34972 whole entry E181D): as the sequence (P34972 whole entry) above, with E181D counted along it

CB2R-Quadruple^TM1,7 = CB2R-Quadruple^TM1,7 (Homo sapiens, UniProt P34972, C40S/K279T/K33Q/V36I); assay: [35S]GTPγS assay, CB2R quadruple mutant; assay type: biochemical; details: for [35S]GTPγS binding, percentage of WT: QuadrupleTM1,7, individual replicates
CB2R-Quadruple^TM1,7, sequence (P34972 whole entry K33Q/V36I/C40S/K279T): as the sequence (P34972 whole entry) above, with K33Q, V36I, C40S, K279T counted along it
Experimental: In short, transient HEK293T membrane homogenates (10 µg/well) were diluted in assay buffer (50 mM Tris-HCl (pH 7.4), 5 mM MgCl2, 150 mM NaCl, 1 mM EDTA, 0.05% BSA (w/v) and 1 mM DTT, freshly prepared every day) and were pretreated with 10 µg saponin and 1 µM GDP. For endocannabinoid samples, the membranes were additionally pretreated for 30 min with 50 µM PMSF before agonist addition. […] Basal receptor activity was determined in the presence of vehicle only (0.2% DMSO/acetonitrile). […] Filtration was performed, and filter-bound radioactivity was determined as described under [^3H]RO6957022 Competition Association Assays except for using ice-cold 50 mM Tris-HCl (pH 7.4), 5 mM MgCl2 buffer.

CB1R QuadrupleTM1,7 = assay: [35S]GTPγS assay, CB1R quadruple mutant; assay type: biochemical, human

## CCCCC/C=C\C/C=C\C/C=C\C/C=C\CCCC(=O)NCCO [AEA, anandamide]
hCB2R [1]; log [agonist] (M) -5
  percentage specific [3H]RO6957022 binding (displacement): 3.79% and 18.06% and 16.04%
hCB2R [1]; log [agonist] (M) -6
  percentage specific [3H]RO6957022 binding (displacement): 47.48% and 65.38% and 68.38%
hCB2R [1]; log [agonist] (M) -7
  percentage specific [3H]RO6957022 binding (displacement): 87.86% and 102.56% and 105.31%
hCB2R [1]; log [agonist] (M) -8
  percentage specific [3H]RO6957022 binding (displacement): 101.15% and 95.97% and 108.64%
hCB2R [2]; Time 1 min
  percentage specific [3H]RO6957022 binding (competition association): 4.42% and 11.28% and 5.44%
hCB2R [2]; Time 3 min
  percentage specific [3H]RO6957022 binding (competition association): 16.17% and 23.05% and 21.34%
hCB2R [2]; Time 5 min
  percentage specific [3H]RO6957022 binding (competition association): 26.28% and 26.79% and 25.51%
hCB2R [2]; Time 7 min
  percentage specific [3H]RO6957022 binding (competition association): 34.14% and 35.42% and 31.98%
hCB2R [2]; Time 10 min
  percentage specific [3H]RO6957022 binding (competition association): 34.18% and 41.87% and 46.59%
hCB2R [2]; Time 20 min
  percentage specific [3H]RO6957022 binding (competition association): 41.44% and 51.99% and 48.92%
hCB2R [2]; Time 30 min
  percentage specific [3H]RO6957022 binding (competition association): 50.41% and 53.24% and 59.83%
hCB2R [2]; Time 45 min
  percentage specific [3H]RO6957022 binding (competition association): 45.80% and 66.77% and 61.94%
hCB2R [2]; Time 60 min
  percentage specific [3H]RO6957022 binding (competition association): 54.67% and 64.58% and 70.00%
hCB2R [2]; Time 90 min
  percentage specific [3H]RO6957022 binding (competition association): 60.96% and 62.48% and 62.68%
hCB2R [2]; Time 120 min
  percentage specific [3H]RO6957022 binding (competition association): 62.19% and 63.42% and 54.77%
hCB2R [2]; at 1 µM agonist, ET = 1/(kon ∙ 1 × 10-6)
  ET (engagement time): 152 s and 152 ± 10.4 s
CB2R WT; maximum effect at 10 µM compared to WT (Suppl. Table 6)
  Emax: 106 ± 7%
CB2R WT; maximum effect compared to CP55,940
  Emax: 60 ± 5%
CB2R WT; log [ligand] (M) -5
  [35S]GTPγS binding, percentage of WT: 119.90 percentage of WT and 99.77 percentage of WT and 99.12 percentage of WT
CB2R WT; log [ligand] (M) -6
  [35S]GTPγS binding, percentage of WT: 73.32 percentage of WT and 72.65 percentage of WT and 56.56 percentage of WT
CB2R WT; log [ligand] (M) -7
  [35S]GTPγS binding, percentage of WT: 21.64 percentage of WT and 23.33 percentage of WT and 32.57 percentage of WT
CB2R WT; log [ligand] (M) -8
  [35S]GTPγS binding, percentage of WT: 2.55 percentage of WT and 4.67 percentage of WT and 26.67 percentage of WT
CB2R WT; log [agonist] (M) -5
  [35S]GTPγS binding, percentage of CP55,940: 55.30% and 54.57% and 71.23%
CB2R WT; log [agonist] (M) -6
  [35S]GTPγS binding, percentage of CP55,940: 33.82% and 39.74% and 40.65%
CB2R WT; log [agonist] (M) -7
  [35S]GTPγS binding, percentage of CP55,940: 9.98% and 12.76% and 23.41%
CB2R WT; log [agonist] (M) -8
  [35S]GTPγS binding, percentage of CP55,940: 1.18% and 2.55% and 19.17%
CB2R-L185^ECL2H
  Emax: 210 ± 61%
CB2R-L182^ECL2I
  Emax: 5 ± 17%
CB2R-E181^ECL2D
  Emax: 14 ± 5%
CB2R-Quadruple^TM1,7; Quadruple TM1,7 mutant, at 10 µM compared to WT, read-out: Emax (%)
  Emax: 24 ± 7%
CB2R-Quadruple^TM1,7; log [ligand] (M) -5
  [35S]GTPγS binding, percentage of WT: 32.30 percentage of WT and 9.42 percentage of WT and 29.02 percentage of WT
CB2R-Quadruple^TM1,7; log [ligand] (M) -6
  [35S]GTPγS binding, percentage of WT: -7.36 percentage of WT and -10.83 percentage of WT and 27.74 percentage of WT
CB2R-Quadruple^TM1,7; log [ligand] (M) -7
  [35S]GTPγS binding, percentage of WT: -34.86 percentage of WT and -19.55 percentage of WT and 15.75 percentage of WT
CB2R-Quadruple^TM1,7; log [ligand] (M) -8
  [35S]GTPγS binding, percentage of WT: 9.32 percentage of WT and -29.85 percentage of WT and 11.86 percentage of WT
CB1R QuadrupleTM1,7
  Agonist-mediated activation: 1.6 ± 0.1 fold over its basal
